Test results reported in patent US20090137664A1, “SAURURUS CERNUUS COMPOUNDS THAT INHIBIT CELLULAR RESPONSES TO HYPOXIA” (priority 2003, published 2009).

Legend:
Assay type in all cases: cell-based
[1] = system: HL-60(TB); assay: NCI in vitro cell line screen (SRB), Leukemia HL-60(TB)
Procedure: (§1) For exemplary purposes, an embodiment of the present invention was tested for activity with respect to certain cancer cell lines. The following Tables show results from in vitro 60-cell line antitumor testing from the US National Cancer Institute Developmental Therapeutics Program (NCI-DTP) on compound 2. The testing was in connection with the NCI's In Vitro Cell Line Screening Project (IVCLSP). Detailed information regarding the experiments and their interpretation is available from the NCI.

[2] = system: SN12C; assay: NCI in vitro cell line screen (SRB), Renal Cancer SN12C
Procedure: as §1

[3] = system: HCT-15; assay: NCI in vitro cell line screen (SRB), Colon Cancer HCT-15
Procedure: as §1

[4] = system: RXF 393; assay: NCI in vitro cell line screen (SRB), Renal Cancer RXF 393
Procedure: as §1

[5] = system: A549/ATCC; assay: NCI in vitro cell line screen (SRB), Non-Small Cell Lung Cancer A549/ATCC
Procedure: as §1

[6] = system: NCI-H322M; assay: NCI in vitro cell line screen (SRB), Non-Small Cell Lung Cancer NCI-H322M
Procedure: as §1

[7] = Homo sapiens, read-out: LC50 (the source's name)

COc1ccc([C@@H](O)[C@@H](C)Oc2ccc([C@H]3O[C@H](c4ccc(O[C@H](C)[C@H](O)c5ccc6c(c5)OCO6)c(OC)c4)[C@H](C)[C@H]3C)cc2OC)cc1OC [Compound 2, manassantin B] showed a TGI [1] greater than 1.00E−4 Molar, a GI50 ([1]; Homo sapiens) greater than 100 µM and a CC50 [1, 7] greater than 100 µM. The “Mean Optical Densities” value ([1]; Log10 Concentration −4.0 Molar) was 0.426, the “Percent Growth” value ([1]; Log10 Concentration −4.0 Molar) was 58% and the “Mean Optical Densities” value ([1]; Log10 Concentration −5.0 Molar) was 0.491. For the same molecule, the “Percent Growth” value ([1]; Log10 Concentration −5.0 Molar) was 76%, the “Mean Optical Densities” value ([1]; Log10 Concentration −6.0 Molar) was 0.555 and the “Percent Growth” value ([1]; Log10 Concentration −6.0 Molar) was 93%. For the same molecule, the “Mean Optical Densities” value ([1]; Log10 Concentration −7.0 Molar) was 0.543, the “Percent Growth” value ([1]; Log10 Concentration −7.0 Molar) was 90% and the “Mean Optical Densities” value ([1]; Log10 Concentration −8.0 Molar) was 0.469. For the same molecule, the “Percent Growth” value ([1]; Log10 Concentration −8.0 Molar) was 70%, the TGI [2] was greater than 1.00E−4 Molar and the GI50 ([2]; Homo sapiens) was 35.2 µM. For the same molecule, the CC50 [2, 7] was greater than 100 µM, the “Mean Optical Densities” value ([2]; Log10 Concentration −4.0 Molar) was 0.594 and the “Percent Growth” value ([2]; Log10 Concentration −4.0 Molar) was 42%. The “Mean Optical Densities” value ([2]; Log10 Concentration −5.0 Molar) was 0.669, the “Percent Growth” value ([2]; Log10 Concentration −5.0 Molar) was 59% and the “Mean Optical Densities” value ([2]; Log10 Concentration −6.0 Molar) was 0.723. The “Percent Growth” value ([2]; Log10 Concentration −6.0 Molar) was 72%, the “Mean Optical Densities” value ([2]; Log10 Concentration −7.0 Molar) was 0.775 and the “Percent Growth” value ([2]; Log10 Concentration −7.0 Molar) was 84%. The “Mean Optical Densities” value ([2]; Log10 Concentration −8.0 Molar) was 0.770, the “Percent Growth” value ([2]; Log10 Concentration −8.0 Molar) was 82% and the TGI [3] was greater than 1.00E−4 Molar. The GI50 ([3]; Homo sapiens) was 4.91 µM, the CC50 [3, 7] was greater than 100 µM and the “Mean Optical Densities” value ([3]; Log10 Concentration −4.0 Molar) was 0.319. The “Percent Growth” value ([3]; Log10 Concentration −4.0 Molar) was 26%, the “Mean Optical Densities” value ([3]; Log10 Concentration −5.0 Molar) was 0.400 and the “Percent Growth” value ([3]; Log10 Concentration −5.0 Molar) was 38%. For the same molecule, the “Mean Optical Densities” value ([3]; Log10 Concentration −6.0 Molar) was 0.660, the “Percent Growth” value ([3]; Log10 Concentration −6.0 Molar) was 77% and the “Mean Optical Densities” value ([3]; Log10 Concentration −7.0 Molar) was 0.691. The “Percent Growth” value ([3]; Log10 Concentration −7.0 Molar) was 82%, the “Mean Optical Densities” value ([3]; Log10 Concentration −8.0 Molar) was 0.683 and the “Percent Growth” value ([3]; Log10 Concentration −8.0 Molar) was 80%. The TGI [4] was greater than 1.00E−4 Molar, the GI50 ([4]; Homo sapiens) was greater than 100 µM and the CC50 [4, 7] was greater than 100 µM. The “Mean Optical Densities” value ([4]; Log10 Concentration −4.0 Molar) was 0.930, the “Percent Growth” value ([4]; Log10 Concentration −4.0 Molar) was 53% and the “Mean Optical Densities” value ([4]; Log10 Concentration −5.0 Molar) was 0.993. The “Percent Growth” value ([4]; Log10 Concentration −5.0 Molar) was 62%, the “Mean Optical Densities” value ([4]; Log10 Concentration −6.0 Molar) was 1.170 and the “Percent Growth” value ([4]; Log10 Concentration −6.0 Molar) was 85%. For the same molecule, the “Mean Optical Densities” value ([4]; Log10 Concentration −7.0 Molar) was 1.267, the “Percent Growth” value ([4]; Log10 Concentration −7.0 Molar) was 98% and the “Mean Optical Densities” value ([4]; Log10 Concentration −8.0 Molar) was 1.226. For the same molecule, the “Percent Growth” value ([4]; Log10 Concentration −8.0 Molar) was 92%, the TGI [5] was greater than 1.00E−4 Molar and the GI50 ([5]; Homo sapiens) was 6.76 µM. The LC50 (concentration giving 50% net cell kill) ([5]; Homo sapiens) was greater than 100 µM, the “Mean Optical Densities” value ([5]; Log10 Concentration −4.0 Molar) was 0.691 and the “Percent Growth” value ([5]; Log10 Concentration −4.0 Molar) was 30%. For the same molecule, the “Mean Optical Densities” value ([5]; Log10 Concentration −5.0 Molar) was 0.849, the “Percent Growth” value ([5]; Log10 Concentration −5.0 Molar) was 45% and the “Mean Optical Densities” value ([5]; Log10 Concentration −6.0 Molar) was 1.200. The “Percent Growth” value ([5]; Log10 Concentration −6.0 Molar) was 77%, the “Mean Optical Densities” value ([5]; Log10 Concentration −7.0 Molar) was 1.242 and the “Percent Growth” value ([5]; Log10 Concentration −7.0 Molar) was 80%. The “Mean Optical Densities” value ([5]; Log10 Concentration −8.0 Molar) was 1.288, the “Percent Growth” value ([5]; Log10 Concentration −8.0 Molar) was 85% and the TGI [6] was greater than 1.00E−4 Molar. The GI50 ([6]; Homo sapiens) was 19.7 µM, the LC50 ([6]; Homo sapiens) was greater than 100 µM and the “Mean Optical Densities” value ([6]; Log10 Concentration −4.0 Molar) was 1.146. For the same molecule, the “Percent Growth” value ([6]; Log10 Concentration −4.0 Molar) was 28% and the “Mean Optical Densities” value ([6]; Log10 Concentration −5.0 Molar) was 1.266.
